Patent US20110195404A1, “SYSTEMS AND METHODS FOR DETERMINING CALCIUM LEVELS” (priority 2010, published 2011)
Several values for one entry are separate records, joined by “and”; a condition that tells them apart may be missing. Identical values can stand only once.

Assays:
[1] = target: T1, α-amylase (Homo sapiens, UniProt P0DUB6); assay: α-Amylase inhibition saliva screening (2-chloro-p-nitrophenol-maltotriose substrate, absorbance 405 nm); format: biochemical; conditions: 37° C.; for α-amylase assay reading (absorbance at 405 nm), single replicate: test compound prepared at 5,000 ppm
T1 sequence (P0DUB6 16-511): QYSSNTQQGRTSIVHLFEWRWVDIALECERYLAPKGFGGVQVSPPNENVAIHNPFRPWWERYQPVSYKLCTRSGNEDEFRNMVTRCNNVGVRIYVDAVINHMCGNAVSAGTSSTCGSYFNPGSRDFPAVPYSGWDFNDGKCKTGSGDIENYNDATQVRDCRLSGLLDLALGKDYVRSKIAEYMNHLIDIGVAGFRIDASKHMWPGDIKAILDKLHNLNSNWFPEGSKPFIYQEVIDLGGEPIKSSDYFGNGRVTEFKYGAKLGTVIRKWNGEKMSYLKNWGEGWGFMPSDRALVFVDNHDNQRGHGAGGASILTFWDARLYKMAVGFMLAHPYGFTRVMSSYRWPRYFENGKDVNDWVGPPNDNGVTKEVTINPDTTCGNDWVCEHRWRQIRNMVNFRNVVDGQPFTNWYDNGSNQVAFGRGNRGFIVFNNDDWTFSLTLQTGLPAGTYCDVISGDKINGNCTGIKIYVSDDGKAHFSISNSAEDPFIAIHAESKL
Text: Enzymatic activity of α-amylase on the substrate yields 2-chloro-p-nitrophenol, which can be measured spectrophotometrically at 405 nm. The amount of α-amylase activity present in the experimental sample is directly proportional to the increase in absorbance at 405 nm.

[2] = target: T2, Lysozyme (Homo sapiens, UniProt P61626); assay: Lysozyme inhibition saliva screening (fluorescein-labeled Micrococcus lysodeikticus); format: biochemical
T2 sequence (P61626 19-148): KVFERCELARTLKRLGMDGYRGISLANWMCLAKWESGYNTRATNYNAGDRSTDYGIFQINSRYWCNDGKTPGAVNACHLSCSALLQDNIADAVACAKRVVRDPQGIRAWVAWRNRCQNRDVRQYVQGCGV
Text: The assay measures lysozyme activity on Micrococcus lysodeikticus cell walls, which are labeled to such a degree that the fluorescence is quenched. Lysozyme activity can relieve this quenching; yielding increased fluorescence that is proportional to lysozyme activity.

Compound	α-amylase assay reading, Ave ([1]; 0 min, 5,000 ppm)	α-amylase assay reading (absorbance at 405 nm), single replicate ([1]; 0 min)	α-amylase assay reading (absorbance at 405 nm), single replicate ([1]; 5 min)	α-amylase assay reading (absorbance at 405 nm), single replicate ([1]; 0 min, sulfate hydrate)	α-amylase assay reading, Ave ([1]; 5 min, 5,000 ppm)	α-amylase assay reading (absorbance at 405 nm), single replicate ([1]; 5 min, sulfate hydrate)	α-amylase assay reading, Ave ([1]; 15 min, 5,000 ppm)	α-amylase assay reading (absorbance at 405 nm), single replicate ([1]; 15 min, sulfate hydrate)	inhibition of Lysozyme ([2]; 100% saliva samples (data not shown))	Lysozyme Inhibitor Activity ([2]; dilute (3.5%) saliva, FIG. 12)
Aluminum potassium sulfate dodecahydrate [CDI-42]	0.92	0.80 and 0.90 and 0.84	1.80	–	–	–	–	–	–	–
Aluminum sulfate hydrate [CDI-34]	0.40	–	–	0.40 (2×) and 0.36 and 0.45	0.50	0.49 and 0.50 (2×) and 0.52	0.56	0.53 and 0.61 and 0.54 and 0.56	–	–
CC(=O)O [CDI-047, Acetic acid]	–	–	–	–	–	–	–	–	inhibit Lysozyme	Lysozyme Inhibitor Activity
